Where two headings read alike, the source gives them in different places.
What was measured:
human NK-3 receptor = target: T1, human NK-3 receptor (Homo sapiens, UniProt P29371); assay: Antagonistic activity on human NK-3 receptor in human NK-3R/HEK293 stably transfected cells (Fluo-4, FLIPR, Neurokinin B as agonist); format: cell-based; settings: human NK-3R/HEK293 cells
T1 construct: expressed in transfected cells; host or cells: HEK293
T1 sequence (P29371 1-465): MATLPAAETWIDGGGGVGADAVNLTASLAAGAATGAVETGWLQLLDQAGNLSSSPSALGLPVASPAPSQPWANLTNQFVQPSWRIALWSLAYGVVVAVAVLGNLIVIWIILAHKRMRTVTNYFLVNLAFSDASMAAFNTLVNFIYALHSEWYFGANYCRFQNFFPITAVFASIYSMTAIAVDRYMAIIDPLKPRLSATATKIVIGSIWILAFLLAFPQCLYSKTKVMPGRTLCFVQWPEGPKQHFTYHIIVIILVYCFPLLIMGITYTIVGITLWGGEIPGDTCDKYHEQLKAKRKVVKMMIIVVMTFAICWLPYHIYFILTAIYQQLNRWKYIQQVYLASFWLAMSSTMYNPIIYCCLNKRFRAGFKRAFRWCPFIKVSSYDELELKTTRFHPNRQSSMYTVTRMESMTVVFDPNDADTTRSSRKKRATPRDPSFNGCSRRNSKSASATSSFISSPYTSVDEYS
In short: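 HEK293 cells stably expressing human NK-3R loaded with Component A dye 2 h at 37° C, then preincubated with serially 3-fold diluted compound 30 min at 25° C. Neurokinin B (2.5 nM, 6× stock) added on FLIPR Tetra to read calcium signal. IC50 from inhibition curves versus reference agonist.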

[1] = Pharmacokinetic test in rats (gavage 3 mg/kg, intravenous 1 mg/kg); format: in vivo; settings: rat, plasma, SD rats; for bioavailability: gavage 3 mg/kg vs intravenous 1 mg/kg, read-out: Oral bioavailability F (%); for Cmax: read-out: Blood concentration Cmax; for AUC: read-out: Curve area AUC; for half-life: read-out: Half life T1/2 (converted)
Procedure: Test Example 2: Pharmacokinetic Test of Compounds of the present invention in Rats
(§1) To study in vivo pharmacokinetic behaviors of the compounds of the present invention in rats, and evaluate pharmacokinetic characteristics thereof.
An appropriate amount of sample was weighed, and ultrasonically prepared into a 0.3 mg/mL suspension for the gavage administration group; and was prepared into a 0.2 mg/mL suspension for the intravenous administration group as per a formula of 5% DMSO+10% Solutol+85% (20% SBE-β-CD).
SD rats were fasted overnight, and then administered by gavage at a dosage of 3 mg/kg and by intravenous injection at a dosage of 1 mg/kg, respectively.
0.1 mL of blood was collected before administration and at 5 min, 15 min, 30 min, 1 h, 2 h, 4 h, 8 h, and 24 h after administration, transferred into heparinized tubes, and centrifuged at 3500 rpm for 10 min to separate the plasma, which was stored at −20° C. 4 h after administration, the animals were resumed for feeding/free access to water.
Contents of the test compounds in plasma of the rats after gavage administration were determined by LC/MS/MS.

MDR1 = assay: In vitro brain model test: MDR1-MDCKII bidirectional permeability; format: in vitro ADME; settings: dog; for Papp A→B at 2.5 h, 2 μM / Papp B→A at 2.5 h, 2 μM: MDCK-MDR1, pH 7.4, 2 μM, pH7.4; for efflux ratio at 2.5 h, 2 μM: MDCK-MDR1, pH 7.4, B to A / A to B, read-out: Efflux rate
Procedure: The test product was diluted from dimethyl sulfoxide stock solution to a concentration of 2 μM (dimethyl sulfoxide <1%) with a transfer buffer (HBSS containing 10 mM Hepes, pH7.4); and was applied to apical or basolateral cavities of the cell monolayer. Penetration of the test compound from the direction A to the direction B or from the direction B to the direction A was determined in duplicate. Digoxin was detected at 10 μM in the direction of A-B, or detected in the direction of B-A, while Nadolol and Metoprolol were detected at 2 μM in the direction of A-B in duplicate. The plate was cultivated in a CO2 incubator at 37±1° C. for 2.5 h with 5% CO2 at a saturated humidity without shaking. Further, the efflux rate of each compound was also determined. According to the peak area ratio of analyte/IS, the test product and the control product were quantitatively analyzed by LC-MS/MS.
After the transfer test, the monolayer integrity of cells was determined by a lucifer yellow exclusion assay. Buffer was removed from apical and basolateral cavities, and then 75 μL of 100 μM lucifer yellow and 250 μL of transfer buffer were added into the apical and basolateral cavities, respectively. The culture dish was cultivated at 37° C., 5% CO2, and saturated humidity for 30 min without shaking. After incubation for 30 min, 20 μL of lucifer yellow sample was extracted from the top, and then 60 μL of the transfer buffer was added. Then, 80 μL of lucifer yellow sample was extracted basolaterally. Relative Fluorescence Units (RFU) of lucifer yellow were measured at 425/528 nm (excitation/emission) with an Envision plate reader.

[2] = Pharmacokinetic test in rats: plasma and brain concentration after gavage 3 mg/kg; format: in vivo; settings: rat, oral, SD rats
Procedure: Test Example 4: Pharmacokinetic Test of Compounds of the Present Invention in Rats
as §1
An appropriate amount of sample was weighed, and ultrasonically prepared into a 0.3 mg/mL suspension for the gavage administration group as per a formula of 5% DMSO+10% Solutol+85% (20% SBE-β-CD).
SD rats were fasted overnight, and then administered by gavage at a dosage of 3 mg/kg respectively.
Blood and cerebrospinal fluid were collected at designed time points after administration, and then brain tissue was collected after cardiac perfusion with normal saline. Plasma was collected by centrifugation within 1 h, and then immediately transferred onto wet ice. Centrifugation conditions: 4-10° C., 8,000 rpm, 6 min. 4 h after administration, the animals were resumed for feeding/free access to water.
The concentrations of corresponding compounds in plasma and cerebrospinal fluid were detected by LC-MS/MS.

[3] = brain/plasma, read-out: B/P ratio

Structure (SMILES) | IC50 (human NK-3 receptor) [nM] | bioavailability ([1]; po) [%] | Cmax ([1]; po, gavage 3 mg/kg) [ng/mL] | AUC ([1]; po, gavage 3 mg/kg) [ng·h/mL] | half-life ([1]; po, gavage 3 mg/kg) [h] | AUC ([1]; intravenous injection 1 mg/kg) [ng·h/mL] | half-life ([1]; intravenous injection 1 mg/kg) [h] | Papp A→B at 2.5 h, 2 μM (MDR1) [×10⁻⁶ cm/s] | Papp B→A at 2.5 h, 2 μM (MDR1) [×10⁻⁶ cm/s] | efflux ratio at 2.5 h, 2 μM (MDR1) | other results
CC(=O)Nc1nc(-c2nc(C)ns2)n2c1[C@@H](C)N(C(=O)c1ccc(F)cc1)CC2 [Compound 034, (R)—N-(7-(4-fluorobenzoyl)-8-methyl-3-(3-methyl-1,2,4-thiadiazol-5-yl)-5,6,7,8-tetrahydroimidazo[1,5-a]pyrazin-1-yl)acetamide] | 30.4 | 83.1 | 1290 ± 133 | 5580 ± 241 | 3.92 ± 0.662 | 2240 ± 418 | 2.95 ± 0.855 | – | – | – | –
Cc1nsc(-c2nc(N3C[C@H](F)CC3=O)c3n2CCN(C(=O)c2ccc(F)cc2)[C@@H]3C)n1 [Compound 107, (R)-4-fluoro-1-[(R)-7-(4-fluorobenzoyl)-8-methyl-3-(3-methyl-1,2,4-thiadiazol-5-yl)-5,6,7,8-tetrahydroimidazo[1,5-a]pyrazin-1-yl]pyrrolidin-2-one] | 15.4 | 65.6 | 348 ± 104 | 1860 ± 303 | 4.69 ± 1.18 | 842 ± 66.3 | 0.94 ± 0.19 | – | – | – | –
Cc1nsc(-c2nc(-c3ccnc(F)c3)c3n2CCN(C(=O)c2ccc(F)cc2)[C@@H]3C)n1 [Compound 044, (R)-(4-fluorophenyl)(1-(2-fluoropyridin-4-yl)-8-methyl-3-(3-methyl-1,2,4-thiadiazol-5-yl)-5,6-dihydroimidazo[1,5-a]pyrazin-7 (8H)-yl)methanone] | 17 | – | – | – | – | – | – | 24 | 15.9 | 0.66 | –
Cc1nsc(-c2nc(N3CCCC3=O)c3n2CCN(C(=O)c2ccc(F)cc2)[C@@H]3C)n1 [Compound 068, (R)-1-(7-(4-fluorobenzoyl)-8-methyl-3-(3-methyl-1,2,4-thiadiazol-5-yl)-5,6,7,8-tetrahydroimidazo[1,5-a]pyrazin-1-yl)pyrrolidin-2-one] | 8.36 | 73.4 | 1030 ± 101 | 2890 ± 794 | 3.57 ± 1.39 | 1280 ± 264 | 1.02 ± 0.16 | – | – | – | –
Cc1nsc(-c2nc(-c3cc(F)ncc3F)c3n2CCN(C(=O)c2ccc(F)cc2)[C@@H]3C)n1 [Compound 077, (R)-(1-(2,5-difluoropyridin-4-yl)-8-methyl-3-(3-methyl-1,2,4-thiadiazol-5-yl)-5,6-dihydroimidazo[1,5-a]pyrazin-7 (8H)-yl)(4-fluorophenyl)methanone] | 14.5 | 58.4 | 494 ± 70.6 | 9860 ± 3550 | 11.7 ± 7.72 | 5170 ± 581 | 11.8 ± 3.54 | 18.3 | 14 | 0.77 | concentration at 0.5 h ([2]; brain, sampling time 0.5 h, read-out: Brain conc.): 2570 ± 178 ng/mL; concentration at 2 h ([2]; brain, read-out: Brain conc.): 1980 ± 232 ng/mL; concentration at 8 h ([2]; brain, sampling time 8 h, read-out: Brain conc.): 2020 ± 406 ng/mL; Kp at 0.5 h ([2]; brain/plasma, sampling time 0.5 h, read-out: B/P ratio): 3.25; Kp at 2 h [2, 3]: 3.66; Kp at 8 h ([2]; brain/plasma, sampling time 8 h, read-out: B/P ratio): 3.36; concentration at 0.5 h ([2]; plasma, sampling time 0.5 h, read-out: Plasma conc.): 798 ± 79.8 ng/mL; concentration at 2 h ([2]; plasma, read-out: Plasma conc.): 547 ± 94.5 ng/mL; concentration at 8 h ([2]; plasma, sampling time 8 h, read-out: Plasma conc.): 598 ± 74.9 ng/mL

Second part, led by results:

IC50 (human NK-3 receptor) [nM] | bioavailability ([1]; po) [%] | Cmax ([1]; po, gavage 3 mg/kg) [ng/mL] | AUC ([1]; po, gavage 3 mg/kg) [ng·h/mL] | half-life ([1]; po, gavage 3 mg/kg) [h] | AUC ([1]; intravenous injection 1 mg/kg) [ng·h/mL] | half-life ([1]; intravenous injection 1 mg/kg) [h] | Papp A→B at 2.5 h, 2 μM (MDR1) [×10⁻⁶ cm/s] | Papp B→A at 2.5 h, 2 μM (MDR1) [×10⁻⁶ cm/s] | efflux ratio at 2.5 h, 2 μM (MDR1) | Structure (SMILES) | other results
– | – | – | – | – | – | – | 19.2 | 12.2 | 0.64 | Cc1nsc(-c2nc(-c3cc(F)ncc3O)c3n2CCN(C(=O)c2ccc(F)cc2)[C@@H]3C)n1 [Compound 165, (R)-(1-(2-fluoro-5-hydroxypyridin-4-yl)-8-methyl-3-(3-methyl-1,2,4-thiadiazol-5-yl)-5,6-dihydroimidazo[1,5-a]pyrazin-7 (8H)-yl)(4-fluorophenyl)methanone] | –
734 | – | 2180 | 10100 | 3.22 | 2670 | 1.94 | 26.2 | 28.4 | – | Cc1nsc(-c2nnc3n2CCN(C(=O)c2ccc(F)cc2)[C@@H]3C)n1 [Fezolinetant, reference compound] | concentration at 1 h ([2]; brain, sampling time 1 h, read-out: Brain conc.): 512 ± 88.4 ng/mL; concentration at 2 h ([2]; brain, read-out: Brain conc.): 585 ± 117 ng/mL; concentration at 4 h ([2]; brain, sampling time 4 h, read-out: Brain conc.): 419 ± 37.1 ng/mL; Kp at 1 h ([2]; brain/plasma, sampling time 1 h, read-out: B/P ratio): 0.38; Kp at 2 h [2, 3]: 0.46; Kp at 4 h ([2]; brain/plasma, sampling time 4 h, read-out: B/P ratio): 0.44; concentration at 1 h ([2]; plasma, sampling time 1 h, read-out: Plasma conc.): 1330 ± 177 ng/mL; concentration at 2 h ([2]; plasma, read-out: Plasma conc.): 1280 ± 110 ng/mL; concentration at 4 h ([2]; plasma, sampling time 4 h, read-out: Plasma conc.): 961 ± 21 ng/mL
12.8 | – | – | – | – | – | – | 28 | 18.7 | 0.67 | Cc1nsc(-c2nc(N3Cc4ccccc4C3=O)c3n2CCN(C(=O)c2ccc(F)cc2)[C@@H]3C)n1 [Compound 085, (R)-2-(7-(4-fluorobenzoyl)-8-methyl-3-(3-methyl-1,2,4-thiadiazol-5-yl)-5,6,7,8-tetrahydroimidazo[1,5-a]pyrazin-1-yl)isoindolin-1-one] | –
13.6 | – | – | – | – | – | – | 22.9 | 16.1 | 0.7 | Cc1nsc(-c2nc(-c3ccnc(F)c3F)c3n2CCN(C(=O)c2ccc(F)cc2)[C@@H]3C)n1 [Compound 074, (R)-(1-(2,3-difluoropyridin-4-yl)-8-methyl-3-(3-methyl-1,2,4-thiadiazol-5-yl)-5,6-dihydroimidazo[1,5-a]pyrazin-7 (8H)-yl)(4-fluorophenyl)methanone] | –
